Holding throughout (details): incubation time: 27 h, anaerobic, 37 °C
Experiment [1] relates to Ruminococcus gnavus DSM 108212. Put plainly: growth (OD595) fold change vs plate DMSO controls (fold change (ratio)); higher = more growth.
Experiment [2] has as its system Ruminococcus gnavus DSM 108212. The experiment is described as follows: fold change of Tryptamine concentration vs plate DMSO controls (fold change (ratio)); higher = more amine produced.
The test system of experiment [3] is Ruminococcus gnavus DSM 108212. The experiment is described as follows: fold change of 2-Phenylethylamine concentration vs plate DMSO controls (fold change (ratio)); higher = more amine produced.
Experiment [4] deals with Clostridium sporogenes DSM 1664. The experiment is described as follows: growth (OD595) fold change vs plate DMSO controls (fold change (ratio)); higher = more growth.
Experiment [5] shares this test system. The experiment is described as follows: fold change of Tryptamine concentration vs plate DMSO controls (fold change (ratio)); higher = more amine produced.

For the compound `O=C(N[C@H](CO)[C@H](O)c1ccc([N+](=O)[O-])cc1)C(Cl)Cl` [Chloramphenicol], the growth in experiment [1] (0.6125 µM) amounted to 0.858; in experiment [1] (1.25 µM), 0.8; in experiment [1] (2.5 µM), 0.814; in experiment [1] (5 µM) it was 0.765; in experiment [1] (10 µM) it was 0.647; in experiment [1] (20 µM), 0.204. Also, the “fold change of Tryptamine concentration” value in experiment [2] (0.6125 µM) was determined as 1.05; in experiment [2] (1.25 µM) it was 0.822; in experiment [2] (2.5 µM) it was 0.595; in experiment [2] (5 µM), 0.577; in experiment [2] (10 µM), 0.506; in experiment [2] (20 µM), 0.175. Also, the “fold change of 2-Phenylethylamine concentration” value in experiment [3] (0.6125 µM) turned out to be 1; in experiment [3] (1.25 µM) it was 0.839; in experiment [3] (2.5 µM) it was 0.648; in experiment [3] (5 µM), 0.601; in experiment [3] (10 µM), 0.477; in experiment [3] (20 µM), 0.174.
Turning to `Cc1ncc([N+](=O)[O-])n1C` [Dimetridazole], the growth in experiment [4] (0.6125 µM) was 1.15; in experiment [4] (1.25 µM), 1.1; in experiment [4] (2.5 µM), 0.842; in experiment [4] (5 µM), 1.1; in experiment [4] (10 µM), -0.0122; in experiment [4] (20 µM), -0.0151. Besides, the “fold change of Tryptamine concentration” value in experiment [5] (0.6125 µM) amounted to 0.869; in experiment [5] (1.25 µM), 0.772; in experiment [5] (2.5 µM), 0.685; in experiment [5] (5 µM), 0.184; in experiment [5] (10 µM), 0.0282; in experiment [5] (20 µM) it was 0.0226.
On to `C[C@@H](O)[C@H]1C(=O)N2C(C(=O)O)=C(S[C@@H]3CN[C@H](CNS(N)(=O)=O)C3)[C@H](C)[C@H]12` [Doripenem monohydrate], for which the growth in experiment [1] (0.6125 µM) was determined as 1.74; in experiment [1] (1.25 µM) it was 0.893; in experiment [1] (2.5 µM), 2.1; in experiment [1] (5 µM), 0.381; in experiment [1] (10 µM) it was 0.355; in experiment [1] (20 µM) it was 0.36. The “fold change of Tryptamine concentration” value was 0.35 in experiment [2] (0.6125 µM); 0.206 in experiment [2] (1.25 µM); 0.16 in experiment [2] (2.5 µM); 0.15 in experiment [2] (5 µM); 0.121 in experiment [2] (10 µM); 0.128 in experiment [2] (20 µM). The “fold change of 2-Phenylethylamine concentration” value is 0.242 in experiment [3] (0.6125 µM); 0.158 in experiment [3] (1.25 µM); 0.118 in experiment [3] (2.5 µM); 0.119 in experiment [3] (5 µM); 0.0974 in experiment [3] (10 µM); 0.111 in experiment [3] (20 µM).
For the compound `CS(=O)(=O)c1ccc([C@@H](O)[C@@H](CF)NC(=O)C(Cl)Cl)cc1` [Florfenicol], the growth is 1.14 in experiment [4] (0.6125 µM); 0.685 in experiment [4] (1.25 µM); 0.0218 in experiment [4] (2.5 µM); -0.0331 in experiment [4] (5 µM); -0.0315 in experiment [4] (10 µM); -0.0323 in experiment [4] (20 µM). Further, the growth in experiment [1] (0.6125 µM) is 0.826; in experiment [1] (1.25 µM), 0.757; in experiment [1] (2.5 µM), 0.681; in experiment [1] (5 µM), 0.386; in experiment [1] (10 µM), 0.252; in experiment [1] (20 µM), 0.0641. For the same compound, the “fold change of Tryptamine concentration” value in experiment [5] (0.6125 µM) stood at 0.86; in experiment [5] (1.25 µM), 0.636; in experiment [5] (2.5 µM) it was 0.0416; in experiment [5] (5 µM) it was 0.0331; in experiment [5] (10 µM), 0.0302; in experiment [5] (20 µM), 0.0273. Besides, the “fold change of Tryptamine concentration” value in experiment [2] (0.6125 µM) turned out to be 0.662; in experiment [2] (1.25 µM) it was 0.537; in experiment [2] (2.5 µM), 0.516; in experiment [2] (5 µM), 0.393; in experiment [2] (10 µM) it was 0.261; in experiment [2] (20 µM) it was 0.241. In addition, the “fold change of 2-Phenylethylamine concentration” value in experiment [3] (0.6125 µM) came to 0.644; in experiment [3] (1.25 µM), 0.572; in experiment [3] (2.5 µM), 0.509; in experiment [3] (5 µM), 0.311; in experiment [3] (10 µM) it was 0.203; in experiment [3] (20 µM) it was 0.199.
Take `CC1CCc2cc(F)cc3c(=O)c(C(=O)O)cn1c23` (stereo not drawn) [Flumequine]: the growth in experiment [4] (0.6125 µM) came out at 1.02; in experiment [4] (1.25 µM), 1.04; in experiment [4] (2.5 µM) it was 1; in experiment [4] (5 µM) it was 0.948; in experiment [4] (10 µM), 0.659; in experiment [4] (20 µM), 0.202. The “fold change of Tryptamine concentration” value in experiment [5] (0.6125 µM) is 1.03; in experiment [5] (1.25 µM), 1.06; in experiment [5] (2.5 µM), 1.11; in experiment [5] (5 µM), 0.996; in experiment [5] (10 µM), 0.569; in experiment [5] (20 µM) it was 0.0662.
As for `COc1c(N2C[C@@H]3CCCN[C@@H]3C2)c(F)cc2c(=O)c(C(=O)O)cn(C3CC3)c12` [Moxifloxacin], the growth in experiment [1] (0.6125 µM) was determined as 0.813; in experiment [1] (1.25 µM) it was 0.562; in experiment [1] (2.5 µM), 0.528; in experiment [1] (5 µM), 0.491; in experiment [1] (10 µM), 0.279; in experiment [1] (20 µM), 0.119. Moreover, the “fold change of Tryptamine concentration” value in experiment [2] (0.6125 µM) is 2.33; in experiment [2] (1.25 µM), 2.83; in experiment [2] (2.5 µM) it was 3.17; in experiment [2] (5 µM), 3.27; in experiment [2] (10 µM), 2; in experiment [2] (20 µM), 0.511. The “fold change of 2-Phenylethylamine concentration” value is 2.13 in experiment [3] (0.6125 µM); 2.4 in experiment [3] (1.25 µM); 2.64 in experiment [3] (2.5 µM); 2.66 in experiment [3] (5 µM); 1.29 in experiment [3] (10 µM); 0.274 in experiment [3] (20 µM).
As for `OC[C@H]1O[C@@H](n2cnc3cncnc32)[C@H](O)[C@@H]1O` [Nebularine], the growth in experiment [1] (0.6125 µM) was 0.842; in experiment [1] (1.25 µM), 0.629; in experiment [1] (2.5 µM) it was 0.339; in experiment [1] (5 µM), 0.336; in experiment [1] (10 µM), 0.336; in experiment [1] (20 µM) it was 0.333. Moreover, the “fold change of Tryptamine concentration” value in experiment [2] (0.6125 µM) worked out at 0.84; in experiment [2] (1.25 µM) it was 0.755; in experiment [2] (2.5 µM) it was 0.503; in experiment [2] (5 µM) it was 0.464; in experiment [2] (10 µM) it was 0.552; in experiment [2] (20 µM), 0.585. For the same compound, the “fold change of 2-Phenylethylamine concentration” value in experiment [3] (0.6125 µM) was found to be 0.725; in experiment [3] (1.25 µM), 0.65; in experiment [3] (2.5 µM), 0.367; in experiment [3] (5 µM), 0.321; in experiment [3] (10 µM), 0.413; in experiment [3] (20 µM), 0.434.
For the compound `CO[C@H]1/C=C/O[C@@]2(C)Oc3c(C)c(O)c4c(O)c(c5c(nc6cc(C)ccn65)c4c3C2=O)NC(=O)/C(C)=C\C=C\[C@H](C)[C@H](O)[C@@H](C)[C@@H](O)[C@@H](C)[C@H](OC(C)=O)[C@@H]1C` [Rifaximin], the growth in experiment [4] (0.6125 µM) is 1.05; in experiment [4] (1.25 µM) it was 0.257; in experiment [4] (2.5 µM), -0.0262; in experiment [4] (5 µM), -0.0255; in experiment [4] (10 µM), -0.0254; in experiment [4] (20 µM), -0.0277. Besides, the “fold change of Tryptamine concentration” value was found to be 0.601 in experiment [5] (0.6125 µM); 0.0574 in experiment [5] (1.25 µM); 0.03 in experiment [5] (2.5 µM); 0.0292 in experiment [5] (5 µM); 0.0294 in experiment [5] (10 µM); 0.0294 in experiment [5] (20 µM).

For the origin of these results see the supplement of paper PMC12494721.
